Assay results: US6407247B1, “Photo-stable cosmetic and pharmaceutical formulations containing UV-filters” (BASF Aktiengesellschaft, priority 1996, dated 2002)

Assays:
[1] = UV absorption of the compounds of Table 2 (absorption maximum and specific extinction); type: physicochemical; set-up: λmax: unit not given beside the values; conditions: for λmax: UV absorption maximum; for E^11: specific extinction at λmax
[2] = used alone or in combination with UV-B filters; cited from earlier work

Structure (SMILES)	λmax ([1]; Table 2)	E^11 ([1]; Table 2)	E^11 ([1]; Table 2, (water))	photochemical stability [2]
CCCCC(CC)COC(=O)c1ccccc1NC=C(C(C)=O)C(=O)CC (stereo not drawn) [Compound 28]	346	757	–	–
CCCCC(CC)COC(=O)c1ccc(NC=C2C(=O)c3ccccc3C2=O)cc1 (stereo not drawn) [Compound 42]	374	1175	–	–
CCCCC(CC)COC(=O)c1ccccc1NC=C1CCC(C)(C)CC1=O (stereo not drawn) [Compound 40]	358	743	–	–
COC(=O)c1ccccc1NC=C(C#N)C(=O)C(C)(C)C [Compound 19]	348	995	–	–
CC(C)(C)C(=O)C(C#N)=CNc1ccccc1C(=O)O [Compound 15]	346	965	–	–
CCCCC(CC)COC(=O)C(C#N)=CNc1cc(OC)ccc1OC (stereo not drawn) [Compound 33]	350	612	–	–
Cc1cccc(NC=C(C#N)C(=O)C(C)(C)C)c1 [Compound 2]	338	978	–	–
CCCCC(CC)COC(=O)c1ccc(NC=C(C(=O)OCC)C(=O)OCC)cc1 (stereo not drawn) [Compound 39]	320	700	–	–
CCCCC(CC)COC(=O)c1ccc(NC=C(C(C)=O)C(=O)OC)cc1 (stereo not drawn) [Compound 29]	346	941	–	–
COc1cccc(NC=C(C(C)=O)C(C)=O)c1 [Compound 26]	336	1035	–	–
CCCc1ccc(NC=C(C#N)C(=O)C(C)(C)C)cc1 [Compound 8]	342	918	–	–
CCCCC(CC)COC(=O)c1ccc(NC=C2C(=O)OC(C)(C)OC2=O)cc1 (stereo not drawn) [Compound 44]	336	896	–	–
CC(C)(C)C(=O)C(C#N)=CNc1ccc(C(C)(C)C)cc1 [Compound 4]	342	888	–	–
CCCCOC(=O)c1ccccc1NC=C(C#N)C(=O)C(C)(C)C [Compound 21]	346	825	–	–
CCOc1ccccc1NC=C(C#N)C(=O)C(C)(C)C [Compound 18]	352	876	–	–
CCCCC(CC)COC(=O)C(C#N)=CNc1cc(OC)cc(OC)c1 (stereo not drawn) [Compound 34]	322	761	–	–
CCCCC(CC)COC(=O)c1ccccc1NC=C(C#N)C(=O)C(C)(C)C (stereo not drawn) [Compound 9]	348	717	–	–
CC(C)COC(=O)c1ccccc1NC=C(C#N)C(=O)C(C)(C)C [Compound 20]	348	864	–	–
CCCCc1ccc(NC=C(C#N)C(=O)C(C)(C)C)cc1 [Compound 5]	342	884	–	–
CC(C)(C)C(=O)C(C#N)=CNc1ccc(S(=O)(=O)O)cc1.OCCN(CCO)CCO [Compound 16]	340	–	666 (water)	–
CC(C)(C)C(=O)C(C#N)=CNc1ccccc1C(=O)O.OCCN(CCO)CCO [Compound 13]	346	–	667 (water)	–
CCCCC(CC)COC(=O)c1ccc(NC=C(C#N)C#N)cc1 (stereo not drawn) [Compound 41]	330	1191	–	–
CCCCC(CC)COC(=O)c1ccc(NC=C(C#N)C(=O)c2ccccc2)cc1 (stereo not drawn) [Compound 43]	362	869	–	–
COc1ccc(OC)c(NC=C(C#N)C(=O)C(C)(C)C)c1 [Compound 14]	362	491	–	–
CC(C)Oc1cccc(NC=C(C#N)C(=O)C(C)(C)C)c1 [Compound 12]	340	829	–	–
CCCCC(CC)COC(=O)C(C#N)=CNc1ccc(OC)cc1OC (stereo not drawn) [Compound 32]	346	646	–	–
CC(C)c1ccc(NC=C(C#N)C(=O)C(C)(C)C)cc1 [Compound 7]	342	903	–	–
COc1ccc(C(=O)CC(=O)c2ccc(C(C)(C)C)cc2)cc1 [PARSOL 1789, 4-(1,1-dimethylethyl)-4-methoxy-dibenzoylmethane]	–	–	–	not sufficiently photochemically stable
CC(C)(C)C(=O)C(C#N)=CNc1ccc(S(=O)(=O)[O-])cc1.[Na+] [Compound 17]	340	–	1010 (water)	–

The next lines start with results.

λmax ([1]; Table 2)	E^11 ([1]; Table 2)	Structure (SMILES)	E^11 ([1]; Table 2, (water))	photochemical stability [2]
344	717	CCCCC(CC)COC(=O)c1ccccc1NC=C(C(C)=O)C(=O)OC(C)(C)C (stereo not drawn) [Compound 31]	–	–
332	1105	CCCCC(CC)COC(=O)C(C#N)=CNc1ccc(C(=O)OCC)cc1 (stereo not drawn) [Compound 35]	–	–
338	995	CC(C)(C)C(=O)C(C#N)=CNc1ccccc1C#N [Compound 10]	–	–
346	860	CCCCC(CC)COC(=O)c1ccc(NC=C(C#N)C(=O)C(C)(C)C)cc1 (stereo not drawn) [Compound 1]	–	–
346	773	CCCCC(CC)CNC(=O)c1ccc(NC=C(C#N)C(=O)C(C)(C)C)cc1 (stereo not drawn) [Compound 6]	–	–
336	752	CCCCC(CC)COC(=O)C(C#N)=CNc1ccccc1C(=O)OC (stereo not drawn) [Compound 36]	–	–
346	1049	CCCCC(CC)COC(=O)c1ccc(NC=C(C(C)=O)C(C)=O)cc1 (stereo not drawn) [Compound 27]	–	–
348	841	COc1ccc(NC=C(C#N)C(=O)C(C)(C)C)cc1 [Compound 3]	–	–
344	938	CCCCOC(=O)c1ccccc1NC=C(C(C)=O)C(C)=O [Compound 25]	–	–
335	630	CCCCC(CC)COC(=O)c1ccccc1NC=C(C(=O)OCC)C(=O)OCC (stereo not drawn) [Compound 38]	–	–
344	1008	COC(=O)/C(=C\Nc1ccccc1C(=O)OC)C(C)=O [Compound 30]	–	–
336	890	CCOC(=O)C(=CNc1ccccc1C(=O)OC)C(=O)OCC [Compound 37]	–	–
